Experimental data as given in ChEMBL document CHEMBL3526034 (Drug Metab Dispos, 2013).

Tests used:
BCRP (ABCG2) [1] = target: T1, BCRP (ABCG2) (Homo sapiens, UniProt Q9UNQ0); assay: Activity at human BCRP expressed in MDCK2 cells assessed as basolateral to apical mass balance at 3 uM by liquid scintillation counting analysis; format: ADME, cell-based, MDCK-II; conditions: read-out: Activity
T1 sequence (Q9UNQ0 whole entry): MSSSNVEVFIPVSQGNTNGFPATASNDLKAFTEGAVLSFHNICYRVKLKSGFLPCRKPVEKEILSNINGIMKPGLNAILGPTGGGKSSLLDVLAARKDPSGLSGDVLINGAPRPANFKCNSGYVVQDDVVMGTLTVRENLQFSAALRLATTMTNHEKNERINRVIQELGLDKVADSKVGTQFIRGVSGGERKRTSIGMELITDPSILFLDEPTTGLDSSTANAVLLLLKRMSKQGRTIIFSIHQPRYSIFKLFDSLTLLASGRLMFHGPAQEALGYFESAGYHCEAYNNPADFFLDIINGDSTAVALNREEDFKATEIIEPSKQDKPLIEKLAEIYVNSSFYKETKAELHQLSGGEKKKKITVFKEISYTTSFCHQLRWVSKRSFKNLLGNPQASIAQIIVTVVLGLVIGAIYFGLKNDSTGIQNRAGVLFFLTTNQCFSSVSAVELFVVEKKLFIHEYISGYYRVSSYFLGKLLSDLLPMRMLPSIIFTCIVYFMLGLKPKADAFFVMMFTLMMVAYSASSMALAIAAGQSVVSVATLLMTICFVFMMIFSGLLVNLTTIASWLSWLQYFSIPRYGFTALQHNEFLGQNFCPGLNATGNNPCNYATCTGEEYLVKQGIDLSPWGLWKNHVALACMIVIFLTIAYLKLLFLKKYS

CYP2B6 = CYP2B6 (Homo sapiens, UniProt P20813); assay: Inhibition of CYP2B6 in human liver microsomes using bupropion as substrate at 100 uM preincubated for 20 mins with substrate prior to initiation of reaction with NADPH by HPLC analysis; format: ADME; conditions: probe bupropion
[2] = target: Solute carrier organic anion transporter family member 1B3 (Homo sapiens, UniProt Q9NPD5); assay: Inhibition of human OATP1B3 expressed in BacMam baculovirus virus infected HEK MSR2 cells using [3H]estradiol 17beta-D-glucuronide as substrate by liquid scintillation counting analysis; format: ADME, HEK293
[3] = target: UDP-glucuronosyltransferase 2B7 (Homo sapiens, UniProt P16662); assay: (§1) Drug metabolism assessed as UDPGA-fortified human recombinant UGT2B7-mediated DTG glucuronide metabolite ((2S,3S,4S,5R,6S)-6-((4R,12aS)-9-(2,4-difluorobenzylcarbamoyl)-4-methyl-6,8-dioxo-3,4,6,8,12,12a-hexahydro-2H-[1,3]oxazino[3,2-d]pyrido[1,2-a]pyrazin-7-yloxy)-3,4,5-trihydroxytetrahydro-2H-pyran-2-carboxylic acid) formation after 120 mins by radio-HPLC analysis; format: ADME; conditions: recombinant enzyme
[4] = target: ATP-binding cassette sub-family C member 2 (Homo sapiens, UniProt Q92887); assay: Inhibition of human MRP2
CYP2C19 = CYP2C19 (Homo sapiens, UniProt P33261); assay: Inhibition of CYP2C19 in human liver microsomes using S-mephenytoin as substrate at 100 uM preincubated for 20 mins with substrate prior to initiation of reaction with NADPH by HPLC analysis; format: ADME; conditions: probe S-mephenytoin
[5] = target: T2, UDP-glucuronosyltransferase 1A1 (Homo sapiens, UniProt P22309); assay: as §1, with “intrinsic clearance for” for “UDPGA-fortified”, “UGT1A1-mediated” for “UGT2B7-mediated”, “M2” for “metabolite”, “mins measured per mg of protein” for “mins”; format: ADME; conditions: recombinant enzyme
T2 sequence (P22309 whole entry): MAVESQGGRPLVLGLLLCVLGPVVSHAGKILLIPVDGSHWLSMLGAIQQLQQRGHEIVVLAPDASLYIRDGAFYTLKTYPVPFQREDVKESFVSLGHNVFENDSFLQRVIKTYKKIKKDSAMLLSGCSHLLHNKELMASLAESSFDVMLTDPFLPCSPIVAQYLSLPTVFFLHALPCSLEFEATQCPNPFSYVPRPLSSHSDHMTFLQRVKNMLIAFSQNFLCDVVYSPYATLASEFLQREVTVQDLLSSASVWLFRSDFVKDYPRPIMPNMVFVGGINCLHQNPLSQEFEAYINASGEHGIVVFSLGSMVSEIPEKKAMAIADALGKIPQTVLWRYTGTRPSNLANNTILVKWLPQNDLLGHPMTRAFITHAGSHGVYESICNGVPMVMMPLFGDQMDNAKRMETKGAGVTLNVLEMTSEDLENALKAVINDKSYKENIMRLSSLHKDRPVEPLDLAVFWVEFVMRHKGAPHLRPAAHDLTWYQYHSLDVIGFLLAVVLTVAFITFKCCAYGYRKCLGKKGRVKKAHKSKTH

[6] = as §1, with “metabolism in human hepatocytes” for “metabolism”, “as” for “as UDPGA-fortified human recombinant UGT2B7-mediated”, “formation at 50 uM” for “formation”, “4 to 20 hrs” for “120 mins”; format: ADME, cell-based, Hepatocyte
MDR1 (P-gp, ABCB1) [7] = target: T3, MDR1 (P-gp, ABCB1) (Homo sapiens, UniProt P08183); assay: Activity at human MDR1 expressed in MDCK2 cells assessed as basolateral to apical mass balance at 3 uM by liquid scintillation counting analysis; format: ADME, cell-based, MDCK-II; conditions: MDCK-MDR1, read-out: Activity
Liver microsome = assay: Drug metabolism in UDPGA-fortified human liver microsomes assessed as DTG glucuronide metabolite ((2S,3S,4S,5R,6S)-6-((4R,12aS)-9-(2,4-difluorobenzylcarbamoyl)-4-methyl-6,8-dioxo-3,4,6,8,12,12a-hexahydro-2H-[1,3]oxazino[3,2-d]pyrido[1,2-a]pyrazin-7-yloxy)-3,4,5-trihydroxytetrahydro-2H-pyran-2-carboxylic acid) formation at 10 uM after 120 mins by radio-HPLC analysis in presence of UGT1A1 inhibitor atazanavir; format: ADME
BCRP (ABCG2) [8] = target: T1, BCRP (ABCG2); assay: Activity at human BCRP expressed in MDCK2 cells assessed as basolateral to apical mass balance at 3 uM by liquid scintillation counting analysis in presence of 3 uM P-gp and BCRP inhibitor GF120918; format: ADME, cell-based, MDCK-II; conditions: with GF120918 (P-gp and BCRP inhibitor), read-out: Activity
[9] = Protein binding in plasma (unknown origin); format: ADME, cell-free; conditions: read-out: PPB
Cytochrome P450 2C9 = Cytochrome P450 2C9 (Homo sapiens, UniProt P11712); assay: Metabolism-dependent inhibition of CYP2C9 in human liver microsomes using diclofenac as substrate preincubated for 20 mins with NADPH prior to initiation of reaction with probe substrate by HPLC analysis; format: ADME
Hepatocyte = assay: Induction of CYP2B6 mRNA expression in human hepatocytes at 1 to 40 uM after 48 hrs by real time PCR analysis; format: ADME, cell-based
CYP2D6 = CYP2D6 (Homo sapiens, UniProt P10635); assay: Inhibition of CYP2D6 in human liver microsomes using bufuralol as substrate at 100 uM preincubated for 20 mins with substrate prior to initiation of reaction with NADPH by HPLC analysis; format: ADME; conditions: probe bufuralol
MDR1 (P-gp, ABCB1) [10] = target: T3, MDR1 (P-gp, ABCB1); assay: Activity at human MDR1 expressed in MDCK2 cells assessed as basolateral to apical mass balance at 3 uM by liquid scintillation counting analysis in presence of 3 uM P-gp and BCRP inhibitor GF120918; format: ADME, cell-based, MDCK-II; conditions: with GF120918 (P-gp and BCRP inhibitor), read-out: Activity

T3 sequence (P08183 whole entry): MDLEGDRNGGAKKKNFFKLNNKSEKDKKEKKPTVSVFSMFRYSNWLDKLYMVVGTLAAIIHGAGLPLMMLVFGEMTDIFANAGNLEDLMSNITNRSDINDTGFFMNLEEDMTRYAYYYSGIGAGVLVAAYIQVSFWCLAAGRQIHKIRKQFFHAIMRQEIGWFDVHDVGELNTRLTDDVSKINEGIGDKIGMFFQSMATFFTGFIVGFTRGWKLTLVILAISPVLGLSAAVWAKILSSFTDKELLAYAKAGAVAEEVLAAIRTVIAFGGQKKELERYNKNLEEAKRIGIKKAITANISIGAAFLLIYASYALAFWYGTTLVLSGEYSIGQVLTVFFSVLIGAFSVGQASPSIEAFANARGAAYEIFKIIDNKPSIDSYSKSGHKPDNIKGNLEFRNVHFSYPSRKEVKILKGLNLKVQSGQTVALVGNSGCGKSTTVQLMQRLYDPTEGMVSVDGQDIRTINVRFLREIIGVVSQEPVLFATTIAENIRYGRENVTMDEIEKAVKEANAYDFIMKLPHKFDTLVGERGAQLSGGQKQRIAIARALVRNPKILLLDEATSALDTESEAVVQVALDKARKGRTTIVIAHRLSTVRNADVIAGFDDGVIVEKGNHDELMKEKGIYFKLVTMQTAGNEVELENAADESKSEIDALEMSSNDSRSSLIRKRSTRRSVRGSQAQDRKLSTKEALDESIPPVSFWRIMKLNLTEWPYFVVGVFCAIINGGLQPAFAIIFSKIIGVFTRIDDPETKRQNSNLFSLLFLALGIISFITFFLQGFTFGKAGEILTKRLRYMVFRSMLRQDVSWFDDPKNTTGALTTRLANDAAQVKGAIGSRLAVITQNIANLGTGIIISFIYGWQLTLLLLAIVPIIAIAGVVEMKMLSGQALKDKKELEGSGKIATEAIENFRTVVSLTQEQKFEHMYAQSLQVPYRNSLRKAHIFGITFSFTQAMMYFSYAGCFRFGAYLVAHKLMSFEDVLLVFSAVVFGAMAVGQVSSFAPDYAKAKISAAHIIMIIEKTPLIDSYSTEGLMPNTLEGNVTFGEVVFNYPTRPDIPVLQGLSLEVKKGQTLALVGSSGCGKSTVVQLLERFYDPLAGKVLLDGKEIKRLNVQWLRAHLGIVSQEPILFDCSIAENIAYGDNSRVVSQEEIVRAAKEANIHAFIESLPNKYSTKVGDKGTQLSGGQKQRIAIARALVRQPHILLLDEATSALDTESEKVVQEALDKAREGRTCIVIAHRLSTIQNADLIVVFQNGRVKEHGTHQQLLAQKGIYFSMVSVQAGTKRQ
Chain of ATP-binding cassette sub-family C member 2 (Q92887 whole entry): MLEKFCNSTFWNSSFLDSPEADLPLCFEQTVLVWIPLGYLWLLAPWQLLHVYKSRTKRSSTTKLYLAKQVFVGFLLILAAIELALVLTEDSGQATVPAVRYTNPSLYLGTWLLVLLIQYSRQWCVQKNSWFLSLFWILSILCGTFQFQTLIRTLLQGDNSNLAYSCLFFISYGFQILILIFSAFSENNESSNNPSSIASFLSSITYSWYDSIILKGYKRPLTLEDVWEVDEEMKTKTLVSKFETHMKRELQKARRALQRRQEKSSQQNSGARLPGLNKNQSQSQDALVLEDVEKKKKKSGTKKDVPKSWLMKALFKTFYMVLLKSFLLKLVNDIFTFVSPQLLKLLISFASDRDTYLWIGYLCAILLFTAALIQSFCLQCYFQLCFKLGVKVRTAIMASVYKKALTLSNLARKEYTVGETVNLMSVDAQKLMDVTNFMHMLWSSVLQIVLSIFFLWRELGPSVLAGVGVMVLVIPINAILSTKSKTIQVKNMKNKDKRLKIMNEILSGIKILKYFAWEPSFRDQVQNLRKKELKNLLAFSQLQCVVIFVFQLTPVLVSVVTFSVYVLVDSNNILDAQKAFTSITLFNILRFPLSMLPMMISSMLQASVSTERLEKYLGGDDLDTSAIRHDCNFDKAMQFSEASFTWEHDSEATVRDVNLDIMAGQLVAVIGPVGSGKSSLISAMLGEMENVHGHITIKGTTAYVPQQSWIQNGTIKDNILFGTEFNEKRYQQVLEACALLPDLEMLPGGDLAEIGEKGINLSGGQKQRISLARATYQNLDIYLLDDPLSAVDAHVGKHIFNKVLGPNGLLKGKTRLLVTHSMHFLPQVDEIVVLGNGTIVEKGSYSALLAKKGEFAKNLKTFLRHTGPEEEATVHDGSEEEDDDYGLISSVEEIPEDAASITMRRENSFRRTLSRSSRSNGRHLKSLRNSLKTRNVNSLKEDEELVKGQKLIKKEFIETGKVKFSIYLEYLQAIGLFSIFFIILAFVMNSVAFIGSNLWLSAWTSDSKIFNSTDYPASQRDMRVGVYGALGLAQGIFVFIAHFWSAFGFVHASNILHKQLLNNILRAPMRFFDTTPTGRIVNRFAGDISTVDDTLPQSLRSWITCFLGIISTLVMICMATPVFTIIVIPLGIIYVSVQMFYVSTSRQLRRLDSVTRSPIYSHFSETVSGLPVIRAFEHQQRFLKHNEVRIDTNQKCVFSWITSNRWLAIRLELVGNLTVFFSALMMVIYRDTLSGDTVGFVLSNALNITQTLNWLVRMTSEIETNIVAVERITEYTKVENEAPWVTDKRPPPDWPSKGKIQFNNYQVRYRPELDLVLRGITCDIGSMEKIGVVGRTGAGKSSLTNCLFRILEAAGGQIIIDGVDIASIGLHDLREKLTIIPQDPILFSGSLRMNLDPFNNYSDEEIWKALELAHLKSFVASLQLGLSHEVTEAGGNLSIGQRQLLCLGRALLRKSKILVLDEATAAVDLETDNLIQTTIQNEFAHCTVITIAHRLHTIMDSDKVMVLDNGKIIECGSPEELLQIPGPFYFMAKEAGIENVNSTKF
Chain of CYP2C19 (P33261 whole entry): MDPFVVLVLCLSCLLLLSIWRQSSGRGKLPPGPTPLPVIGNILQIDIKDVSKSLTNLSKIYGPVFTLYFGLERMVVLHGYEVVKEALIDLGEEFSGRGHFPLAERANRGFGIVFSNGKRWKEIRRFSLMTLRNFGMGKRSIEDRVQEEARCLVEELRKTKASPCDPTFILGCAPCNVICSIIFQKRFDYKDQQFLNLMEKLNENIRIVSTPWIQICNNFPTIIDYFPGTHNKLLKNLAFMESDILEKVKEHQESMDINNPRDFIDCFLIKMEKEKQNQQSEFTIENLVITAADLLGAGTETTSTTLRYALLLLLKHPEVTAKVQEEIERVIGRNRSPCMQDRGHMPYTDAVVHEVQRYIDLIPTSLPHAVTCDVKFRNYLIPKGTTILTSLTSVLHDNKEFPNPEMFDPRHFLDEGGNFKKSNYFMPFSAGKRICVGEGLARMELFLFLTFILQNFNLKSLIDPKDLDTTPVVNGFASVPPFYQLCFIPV
Chain of Solute carrier organic anion transporter family member 1B3 (Q9NPD5 whole entry): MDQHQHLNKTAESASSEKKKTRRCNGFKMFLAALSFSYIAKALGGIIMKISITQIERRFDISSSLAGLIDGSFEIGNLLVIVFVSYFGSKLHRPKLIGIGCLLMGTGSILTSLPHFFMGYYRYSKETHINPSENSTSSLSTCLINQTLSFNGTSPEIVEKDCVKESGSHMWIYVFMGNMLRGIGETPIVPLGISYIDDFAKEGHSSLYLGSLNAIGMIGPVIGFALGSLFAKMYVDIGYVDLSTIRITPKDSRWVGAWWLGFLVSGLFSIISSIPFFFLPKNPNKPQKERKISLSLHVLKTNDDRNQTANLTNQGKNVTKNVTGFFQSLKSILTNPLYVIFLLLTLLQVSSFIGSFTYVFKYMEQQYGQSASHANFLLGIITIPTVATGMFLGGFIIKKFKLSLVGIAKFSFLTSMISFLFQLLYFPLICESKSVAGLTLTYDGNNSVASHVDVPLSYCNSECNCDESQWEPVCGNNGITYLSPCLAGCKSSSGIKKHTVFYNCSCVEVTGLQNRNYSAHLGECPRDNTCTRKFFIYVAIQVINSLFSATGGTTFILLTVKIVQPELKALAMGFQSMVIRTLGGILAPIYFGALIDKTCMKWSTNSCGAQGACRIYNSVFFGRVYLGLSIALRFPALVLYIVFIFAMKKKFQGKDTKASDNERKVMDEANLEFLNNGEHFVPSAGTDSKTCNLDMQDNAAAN
Chain of CYP2D6 (P10635 whole entry): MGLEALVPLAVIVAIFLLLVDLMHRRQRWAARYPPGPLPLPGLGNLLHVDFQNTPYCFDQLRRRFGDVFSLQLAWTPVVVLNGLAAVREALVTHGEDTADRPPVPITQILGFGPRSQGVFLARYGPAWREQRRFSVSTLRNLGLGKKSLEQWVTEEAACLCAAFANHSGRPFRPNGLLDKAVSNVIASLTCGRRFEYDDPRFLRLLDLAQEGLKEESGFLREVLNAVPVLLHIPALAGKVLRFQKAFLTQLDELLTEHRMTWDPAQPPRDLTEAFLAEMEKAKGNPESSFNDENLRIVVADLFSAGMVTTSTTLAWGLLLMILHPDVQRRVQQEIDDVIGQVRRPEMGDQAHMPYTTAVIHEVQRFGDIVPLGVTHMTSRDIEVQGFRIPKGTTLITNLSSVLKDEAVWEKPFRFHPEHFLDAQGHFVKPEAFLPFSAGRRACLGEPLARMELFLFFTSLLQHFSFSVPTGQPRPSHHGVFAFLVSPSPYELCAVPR
Chain of Cytochrome P450 2C9 (P11712 whole entry): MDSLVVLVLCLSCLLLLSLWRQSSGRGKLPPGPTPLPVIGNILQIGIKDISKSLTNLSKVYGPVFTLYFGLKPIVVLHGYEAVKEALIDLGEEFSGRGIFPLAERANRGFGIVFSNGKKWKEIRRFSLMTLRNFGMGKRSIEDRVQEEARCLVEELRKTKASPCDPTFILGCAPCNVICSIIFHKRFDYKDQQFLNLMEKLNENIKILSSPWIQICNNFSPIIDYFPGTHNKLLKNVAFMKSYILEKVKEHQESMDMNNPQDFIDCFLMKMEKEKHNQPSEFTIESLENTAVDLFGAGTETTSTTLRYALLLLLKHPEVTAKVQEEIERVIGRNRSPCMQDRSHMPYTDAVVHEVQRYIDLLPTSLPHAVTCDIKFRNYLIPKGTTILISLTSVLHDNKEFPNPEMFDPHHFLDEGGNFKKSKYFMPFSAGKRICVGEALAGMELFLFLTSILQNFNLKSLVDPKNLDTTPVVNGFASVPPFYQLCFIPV

C[C@@H]1CCO[C@H]2Cn3cc(C(=O)NCc4ccc(F)cc4F)c(=O)c(O)c3C(=O)N12 [DOLUTEGRAVIR]
recovery at 3 µM (BCRP (ABCG2) [1]): 85% | inhibition at 100 µM (CYP2B6): 20% | IC50 [2]: > 100 µM | Drug metabolism [3]: metabolite_not_detected | IC50 [4]: > 90 µM | inhibition at 100 µM (CYP2C19): 20% | CL [5]: 3.2 µL/min/g | Drug metabolism [6]: metabolite_detected | recovery at 3 µM (MDR1 (P-gp, ABCB1) [7]): 84% | Drug metabolism (Liver microsome): metabolite_not_detected | recovery at 3 µM (BCRP (ABCG2) [8]): 76% | fraction unbound [9]: < 0.01 | IC50 (Cytochrome P450 2C9): > 100 µM | Activity (Hepatocyte): Toxic | inhibition at 100 µM (CYP2D6): 20% | recovery at 3 µM (MDR1 (P-gp, ABCB1) [10]): 75%
